From patent US6458746B1, “Plant growth regulating formulations” (BASF Aktiengesellschaft, priority 1998, dated 2002)

Columns and labels:
Assay type in all cases: in vivo
wheat = test: Greenhouse shoot length test, wheat; conditions: for Shoot length Wheat [% of control]: 1% formulations in Atlas G 1086; for Shoot length [% of control] Wheat: 2.5 g/ha ai; for Shoot length reduction [activity, relative to control] in wheat: key: 0: no effect; +: low activity; ++: intermediate activity; +++: high activity
Procedure: (§1) Unless otherwise noted, the growth regulating proerties of different compounds in different formulations were determined under greenhouse conditions as follows: […]
(§2) Test plants were grown in plastic pots of approximately 12.5 cm in diameter in a substrate provided with sufficient nutrients and water. At an appropriate shoot length the plants were treated with aqueous sprays of the formulations. The growth-regulating action observed was confirmed at the end of the experiment by measuring the height of the plants. The results obtained were compared with the growth height of the untreated plants.
(§3) Assays with wheat, barley, oat, and rye plants were carried out as described above. The aqueous spray solutions were prepared as follows: […]

barley = test: Greenhouse shoot length test, barley; conditions: for Shoot length Barley [% of control]: 1% formulations in Atlas G 1086; for Shoot length [% of control] Barley: 2.5 g/ha ai
Procedure: as §1, §2, §3

oats = test: Greenhouse shoot length test, oats; conditions: 1% formulations in cyclohexanone: Emulan EL = 4:1; note: key: 0: no effect; +: low activity; ++: intermediate activity; +++: high activity
Procedure: as §1, §2

rye = test: Greenhouse shoot length test, rye; conditions: 1% formulations in cyclohexanone: Emulan EL = 4:1; note: key: 0: no effect; +: low activity; ++: intermediate activity; +++: high activity
Procedure: as §1, §2

rice = test: Greenhouse shoot length test, rice; conditions: 1% formulations in cyclohexanone: Emulan EL = 4:1; note: key: 0: no effect; +: low activity; ++: intermediate activity; +++: high activity
Procedure: as §1, §2

[1] = tested on: small grains and rice (wheat, barley, oats, rye, rice); test: Shoot length reduction in small grains and rice (statements across species); conditions: Examples 1 and 2
Procedure: as §1, §2

[2] = tested on: spring barley (cv. “Alexis”); test: Shoot height reduction in spring barley, synergistic combinations; conditions: 20 days after treatment
Procedure: as §1, §2
(§4) To show the synergistic effects of formulations in accordance with the instant invention together with further growth regulating agents, formulations in accordance with the invention were prepared and additional active ingredients added.
Shoot height reduction in spring barley (cv. “Alexis”) 20 days after treatment with combinations of standard compound S2 and compound VII
Shoot height reduction in spring barley (cv. “Alexis”) 20 days after treatment with combinations of standard compound S4 and compound VII

[3] = tested on: spring wheat (cv. “Ralle”); test: Shoot height reduction in spring wheat, synergistic combinations
Procedure: as §1, §2, §4
Shoot height reduction in spring wheat (cv. “Ralle”) 21 days after treatment with combinations of standard compound S4 and compound VII
Shoot height reduction in spring wheat (cv. “Ralle”) 13 days after treatment with combinations of standard compound S5 and compound VII

[4] = tested on: rice seedlings [cvs. “Koshihikari” (tall), “Tan-ginbozu” (dwarf), “Waito C” (dwarf)]; test: Shoot growth of rice seedlings, combinations with GA3; conditions: for Shoot growth Waito C [% of Control] / Shoot growth Tan-ginbozu [% of Control] / Shoot growth Koshihikari [% of Control]: 7 days after treatment, 1 kg/ha ammonium sulphate added; for Shoot growth Waito C [% of Control]: 100% = 8.7 cm; for Shoot growth Tan-ginbozu [% of Control]: 100% = 9.4 cm; for Shoot growth Koshihikari [% of Control]: 100% = 17.4 cm
Procedure: as §1, §2
The synergizing effect of compound VII on shoot elongation in rice is shown in the results of Example 7.
Enhanced shoot growth of rice seedlings [cvs. “Koshihikari” tall), “Tan-ginbozu” (dwarf), “Waito C” (dwarf)] 7 days after treatment with combinations of compound 6 with GA3^d

[5] = 1% formulations in cyclohexanone: Emulan EL = 4:1

exo-16,17-Dihydro-GA5-13-acetate [Comp. VII]
Shoot length reduction [activity, relative to control] in wheat (wheat; [5]): +++
Shoot length Wheat [% of control] (wheat; 1.6 g/ha ai): 90 % of control
Shoot length [% of control] Wheat (wheat; adjuvant Ethanol 500 g/ha): 99 % of control
Shoot length [% of control] Wheat (wheat; adjuvant R 15 500 g/ha): 73 % of control
Shoot length Wheat [% of control] (wheat; 3.1 g/ha ai): 73 % of control
Shoot length Wheat [% of control] (wheat; 6.3 g/ha ai): 70 % of control
Shoot length Wheat [% of control] (wheat; 12.5 g/ha ai): 64 % of control
Shoot length reduction [activity, relative to control] in barley (barley; [5]): +++
Shoot length Barley [% of control] (barley; 1.6 g/ha ai): 97 % of control
Shoot length [% of control] Barley (barley; adjuvant Ethanol 500 g/ha): 99 % of control
Shoot length [% of control] Barley (barley; adjuvant R 15 500 g/ha): 75 % of control
Shoot length Barley [% of control] (barley; 3.1 g/ha ai): 78 % of control
Shoot length Barley [% of control] (barley; 6.3 g/ha ai): 61 % of control
Shoot length Barley [% of control] (barley; 12.5 g/ha ai): 57 % of control
Shoot length reduction [activity, relative to control] in oats (oats): +++
Shoot length reduction [activity, relative to control] in rye (rye): +++
Shoot length reduction [activity, relative to control] in rice (rice): +++
shoot length reduction compared with compounds II to V [1]: superior to compounds II to V
% Shoot height reduction Actual ([2]; 3 g/ha a.i.): 6%
% Shoot height reduction Actual ([2]; 3 g/ha a.i., S4/VII table): 6%
% Shoot height reduction Actual ([2]; 6 g/ha a.i.): 18%
% Shoot height reduction Actual ([2]; 6 g/ha a.i., S4/VII table): 18%
% Shoot height reduction Actual ([3]; 3 g/ha a.i., 21 days after treatment): 8%
% Shoot height reduction Actual ([3]; 6 g/ha a.i., 13 days after treatment): 18%
% Shoot height reduction Actual ([3]; 6 g/ha a.i., 21 days after treatment): 21%
Shoot growth Waito C [% of Control] ([4]; VII 12.5 g/ha ai): 80 % of Control
Shoot growth Tan-ginbozu [% of Control] ([4]; VII 12.5 g/ha ai): 74 % of Control
Shoot growth Koshihikari [% of Control] ([4]; VII 12.5 g/ha ai): 75 % of Control
Shoot growth Waito C [% of Control] ([4]; VII 25.0 g/ha ai): 80 % of Control
Shoot growth Tan-ginbozu [% of Control] ([4]; VII 25.0 g/ha ai): 74 % of Control
Shoot growth Koshihikari [% of Control] ([4]; VII 25.0 g/ha ai): 75 % of Control
Shoot growth Waito C [% of Control] ([4]; VII 50.0 g/ha ai): 80 % of Control
Shoot growth Tan-ginbozu [% of Control] ([4]; VII 50.0 g/ha ai): 74 % of Control
Shoot growth Koshihikari [% of Control] ([4]; VII 50.0 g/ha ai): 75 % of Control
effect on shoot elongation in rice ([4]; applied alone): reduces shoot elongation
effect on the shoot growth-promoting effect of GA3 ([4]; applied in combination with GA3): could clearly be raised
